In brackets after ≈: the same amount, converted by molar mass.
How the values were obtained:
[1] = system: Penicillin-res. S. pneumonia ATCC 700671; experiment: MIC determination, PRSP; format: cell-based, Streptococcus pneumonia; details: ATCC 700671, 24 h; for MIC: Streptococcus pneumoniae
Procedure: (§1) Susceptibility testing for bacterial cultures is performed according to the National Council for Clinical Laboratory Standards (NCCLS) protocol M100-S12, “Performance Standards for Antimicrobial Susceptibility Testing.” The bacterial strains recommended by NCCLS were obtained from the American Type Culutre Collection (ATCC) (Table) and were maintained on Mueller Hinton (MHA) agar plates plus or minus 3% lysed horse blood (see Table). The bacteria were grown in Cation adjusted Mueller Hinton Broth (CaMHB) for liquid growth and susceptibility testing. S. cerevisiae (yeast) is grown in yeast peptone dextrose (YPD) media.
(§2) All bacterial cultures were grown at 37 degrees Celsius. Fresh colonies of S. aureus and MRSA were inoculated into liquid media and grown overnight and diluted the next day to grow to mid-log (Table 2). E. faecalis and S. pneumonia mid-log cultures were started directly from colony on plates. To attain mid-log growth, cultures were grown to an optical density (OD) at A590 of 0.2-0.8 (see Table 2) and then diluted to proper OD to obtain 5×10^5 cells/mL.
(§3) Diluted bacterial cultures are added to compound plates with compound diluted 2-fold from 100 μg/mL to 0.2 μg/mL final concentration in DMSO. Control antibiotics are also added: vancomycin, linezolid, and penicillin. In 384 well plates, 0.5 μL compound is added followed by addition of 50 μL of culture. DMSO alone is included as a control. Plates incubated at 37 degrees Celsius for 17-24 h.
(§4) Plates with cells mixed with compounds are incubated for 17 h for S. aureus and yeast, 24 h for MRSA, and all Enterococcus and Streptococcus strains. Yeast plates are incubated […].
(§5) Viability is determined by reading plates at A590 to determine optical density of treated and untreated cells and determining growth inhibition relative to controls.

[2] = system: Streptococcus pneumonia ATCC 49619; experiment: MIC determination, S. pneumonia; format: cell-based; details: for MIC S. pneuomiae: ATCC 49619, 24 h; for MIC: Streptococcus pneumoniae, ATCC49619, 24 h, read-out: MIC S. pneuomiae
Procedure: as §1, §2, §3, §4, §5

S. cerevisiae Δpdr5 = experiment: MIC determination, yeast; format: cell-based; details: YPD, 30 degrees Celsius
Procedure: as §1, §3
Yeast cultures are started from a fresh colony into YPD media and then diluted to OD of 0.002. Diluted yeast is added to compound plates as bacteria but incubated at 30 degrees Celsius for 17 h. Controls are amphotericin B and voriconazole.
as §4, §5

[3] = system: Enterococcus faecalis ATCC 29212; experiment: MIC determination, E. faecalis; format: cell-based; details: ATCC 29212, 24 h
Procedure: as §1, §2, §3, §4, §5

[4] = system: Staphylococcus aureus (Smith) ATCC 19636; experiment: MIC determination, S. aureus; format: cell-based; details: S. aureus ATCC 19636, 17 h; for MIC: Staphylococcus aureus, ATCC19636
Procedure: as §1, §2, §3, §4, §5

[5] = system: Van-intermediate E. faecalis ATCC 51299 / Van-resistant E. faecalis ATCC 700221; experiment: MIC determination, VIRE/VRE; format: cell-based, Enterococcus faecalis; details: ATCC 51299 / 700221, 24 h
Procedure: The MICs were determined using a broth micro-dilution assay in accordance with that recommended by the National Committee for Clinical Laboratory Standards (NCCLS). The final bacterial inoculate contained approximately 5×10^5 cfu/mL and the plates were incubated at 35° C. for 18 h in ambient air (Streptococci in 5% CO2). The MIC was defined as the lowest drug concentration that prevented visible growth.
as §1, §2, §3, §4, §5

[6] = system: Methicillin resistant S. aureus ATCC 33591; experiment: MIC determination, MRSA; format: cell-based, Staphylococcus aureus; details: MRSA ATCC 33591, 24 h; for MIC: Staphylococcus aureus
Procedure: as §1, §2, §3, §4, §5

SMILES | MIC PRSP [1] | MIC S. pneuomiae [2] | MIC S. cerevisiae Δpdr5 (S. cerevisiae Δpdr5) | MIC E. faecalis [3] | MIC S. aureus [4] | MIC VIRE/VRE [5] | MIC MRSA [6] | MIC [1] | MIC [2] | MIC [4] | MIC [6] | MIC ([3]; Enterococcus faecalis, ATCC29212)
CC(O)C1ON(Cc2ccc(C=Cc3ccc(Cl)cc3)cc2)C(C(=O)NCCc2c[nH]c3ccccc23)C1CO (stereo not drawn) | ** (the MIC is 5-90 μg/mL) | ** (the MIC is 5-90 μg/mL) | * (the MIC is >90 μg/mL) | *** (the MIC is less than 5 μg/mL) | *** (the MIC is less than 5 μg/mL) | * (the MIC is >90 μg/mL) | *** (the MIC is less than 5 μg/mL) | – | – | – | – | –
CC(O)C1ON(Cc2ccc(C#Cc3ccc(Cl)cc3)cc2)C(C(=O)NCCc2c[nH]c3ccccc23)C1CO (stereo not drawn) | ** (the MIC is 5-90 μg/mL) | ** (the MIC is 5-90 μg/mL) | ** (the MIC is 5-90 μg/mL) | ** (the MIC is 5-90 μg/mL) | *** (the MIC is less than 5 μg/mL) | ** (the MIC is 5-90 μg/mL) | *** (the MIC is less than 5 μg/mL) | – | – | – | – | –
CC(O)C1ON(Cc2cccc(C#Cc3ccc(Cl)cc3)c2)C(C(=O)NCCc2c[nH]c3ccccc23)C1CO (stereo not drawn) | ** (the MIC is 5-90 μg/mL) | ** (the MIC is 5-90 μg/mL) | ** (the MIC is 5-90 μg/mL) | ** (the MIC is 5-90 μg/mL) | *** (the MIC is less than 5 μg/mL) | ** (the MIC is 5-90 μg/mL) | *** (the MIC is less than 5 μg/mL) | – | – | – | – | –
Cc1ccc(C#Cc2cccc(CN3OC(C(C)O)C(CO)C3C(=O)NCCc3c[nH]c4ccccc34)c2)cc1 (stereo not drawn) | ** (the MIC is 5-90 μg/mL) | ** (the MIC is 5-90 μg/mL) | ** (the MIC is 5-90 μg/mL) | ** (the MIC is 5-90 μg/mL) | *** (the MIC is less than 5 μg/mL) | ** (the MIC is 5-90 μg/mL) | *** (the MIC is less than 5 μg/mL) | – | – | – | – | –
Cc1ccc(CCc2ccc(CN3OC(C(C)O)C(CO)C3C(=O)NCCc3c[nH]c4ccccc34)cc2)cc1 (stereo not drawn) | ** (the MIC is 5-90 μg/mL) | ** (the MIC is 5-90 μg/mL) | – | – | *** (the MIC is less than 5 μg/mL) | – | *** (the MIC is less than 5 μg/mL) | – | – | – | – | –
CC(O)C1ON(Cc2ccc(CCc3ccc(Cl)cc3)cc2)C(C(=O)NCCc2c[nH]c3ccccc23)C1CO (stereo not drawn) | ** (the MIC is 5-90 μg/mL) | ** (the MIC is 5-90 μg/mL) | – | – | ** (the MIC is 5-90 μg/mL) | – | ** (the MIC is 5-90 μg/mL) | – | – | – | – | –
Cc1ccc(C#Cc2ccc(CN3OC4CNCC4C3C(=O)NCCc3c[nH]c4ccccc34)cc2)cc1 (stereo not drawn) | – | – | – | – | – | – | – | 5 to 90 µg/mL (≈ 9.91 to 178 µM) | 5 to 90 µg/mL (≈ 9.91 to 178 µM) | 5 to 90 µg/mL (≈ 9.91 to 178 µM) | 5 to 90 µg/mL (≈ 9.91 to 178 µM) | –
Cc1ccc(C=Cc2ccc(CN3OC(C(C)O)C(CO)C3C(=O)NCCc3c[nH]c4ccccc34)cc2)cc1 (stereo not drawn) | ** (the MIC is 5-90 μg/mL) | ** (the MIC is 5-90 μg/mL) | – | – | ** (the MIC is 5-90 μg/mL) | – | ** (the MIC is 5-90 μg/mL) | – | – | – | – | –
CC(O)C1ON(Cc2ccc(-c3ccc(OC4CCCCO4)cc3)cc2)C(C(=O)NCCc2c[nH]c3ccccc23)C1CO (stereo not drawn) | – | ** (the MIC is 5-90 μg/mL) | – | – | ** (the MIC is 5-90 μg/mL) | – | ** (the MIC is 5-90 μg/mL) | – | – | – | – | –
Cc1ccc(C#Cc2ccc(CN3O[C@H]([C@@H](C)O)[C@H](CO)[C@@H]3CNCCc3c[nH]c4ccccc34)cc2)cc1.Cl | – | – | – | – | – | – | – | > 90 µg/mL | > 90 µg/mL | 5 to 90 µg/mL | 5 to 90 µg/mL | –
CC(=O)c1ccc(-c2ccc(CN3OC(C(C)O)C(CO)C3C(=O)NCCc3c[nH]c4ccccc34)cc2)cc1 (stereo not drawn) | * (the MIC is >90 μg/mL) | – | – | ** (the MIC is 5-90 μg/mL) | ** (the MIC is 5-90 μg/mL) | – | ** (the MIC is 5-90 μg/mL) | – | – | – | – | –
CC(O)C1ON(Cc2ccccc2)C(C(=O)NCCc2c[nH]c3ccccc23)C1CO (stereo not drawn) | * (the MIC is >90 μg/mL) | * (the MIC is >90 μg/mL) | ** (the MIC is 5-90 μg/mL) | ** (the MIC is 5-90 μg/mL) | ** (the MIC is 5-90 μg/mL) | ** (the MIC is 5-90 μg/mL) | ** (the MIC is 5-90 μg/mL) | – | – | – | – | –
Cc1ccc(C#Cc2ccc(CN3O[C@H]([C@@H](C)O)[C@H](CO)[C@@H]3C(=O)NCCCNC(=O)OC(C)(C)C)cc2)cc1 | – | – | – | – | – | – | – | 5 to 90 µg/mL (≈ 9.06 to 163 µM) | – | 5 to 90 µg/mL (≈ 9.06 to 163 µM) | 5 to 90 µg/mL (≈ 9.06 to 163 µM) | 5 to 90 µg/mL (≈ 9.06 to 163 µM)
CCOCCCNC(=O)[C@H]1[C@@H](CO)[C@@H]([C@@H](C)O)ON1Cc1ccc(C#Cc2ccc(C)cc2)cc1 | – | – | – | – | – | – | – | 5 to 90 µg/mL (≈ 10.4 to 187 µM) | 5 to 90 µg/mL (≈ 10.4 to 187 µM) | 5 to 90 µg/mL (≈ 10.4 to 187 µM) | – | –
CC(O)C1ON(Cc2ccc(C=Cc3ccc(C(F)(F)F)cc3)cc2)C(C(=O)NCCc2c[nH]c3ccccc23)C1CO (stereo not drawn) | ** (the MIC is 5-90 μg/mL) | ** (the MIC is 5-90 μg/mL) | – | – | ** (the MIC is 5-90 μg/mL) | – | ** (the MIC is 5-90 μg/mL) | – | – | – | – | –
CC(O)C1ON(CC2CCCCC2)C(C(=O)NCCc2c[nH]c3ccccc23)C1CO (stereo not drawn) | * (the MIC is >90 μg/mL) | – | – | ** (the MIC is 5-90 μg/mL) | ** (the MIC is 5-90 μg/mL) | – | * (the MIC is >90 μg/mL) | – | – | – | – | –
Cc1ccc(C#Cc2ccc(CN3OC(C(C)O)C(CO)C3C(=O)NCCc3c[nH]c4ccccc34)cc2)cc1 (stereo not drawn) [drawing 205] | ** (the MIC is 5-90 μg/mL) | ** (the MIC is 5-90 μg/mL) | ** (the MIC is 5-90 μg/mL) | ** (the MIC is 5-90 μg/mL) | *** (the MIC is less than 5 μg/mL) | ** (the MIC is 5-90 μg/mL) | *** (the MIC is less than 5 μg/mL) | – | – | – | – | –
CC(O)C1ON(Cc2ccc(C=Cc3ccccc3)cc2)C(C(=O)NCCc2c[nH]c3ccccc23)C1CO (stereo not drawn) [drawing 219] | ** (the MIC is 5-90 μg/mL) | ** (the MIC is 5-90 μg/mL) | – | * (the MIC is >90 μg/mL) | *** (the MIC is less than 5 μg/mL) | * (the MIC is >90 μg/mL) | ** (the MIC is 5-90 μg/mL) | – | – | – | – | –

Reference: patent US20060020004A1, “Isoxazolidine compounds for treatment of bacterial infections” (Infinity Pharmaceuticals, Inc., priority 2004, published 2006)
